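96-well plates; 48 h exposure; 5 concentrations. Endpoints by linear interpolation between flanking doses. Not reached: highest tested concentration assigned. Abbreviation: GI50, concentration required for 50% inhibition of growth.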 The source made the active and inactive calls. Cut-off read from the data, not from the text of the source: active = GI50 up to about 1.1 µM and inactive = higher.
Key:
Test in all cases: inhibition of tumour cell growth, NCI panel, 48 h
[1] = tested on: HCC 2998
[2] = tested on: HT-29
[3] = tested on: HL-60
[4] = tested on: HCT-15
[5] = tested on: NCI-H23
[6] = tested on: UACC-257
[7] = tested on: SF-295
[8] = tested on: SK-MEL-28
[9] = tested on: RPMI-8226
[10] = tested on: Malme-3M
[11] = tested on: LOX IMVI
[12] = tested on: EKVX
[13] = tested on: NCI-H460
[14] = tested on: SW-620
[15] = tested on: ACHN
[16] = tested on: CAKI-1
[17] = tested on: A498
[18] = tested on: NCI-H522
[19] = tested on: IGROV-1
[20] = tested on: SNB-75

Compound	GI50 [1]	GI50 [2]	GI50 [3]	GI50 [4]	GI50 [5]	GI50 [6]	GI50 [7]	GI50 [8]	GI50 [9]	GI50 [10]	GI50 [11]	GI50 [12]	GI50 [13]	GI50 [14]	GI50 [15]	GI50 [16]	GI50 [17]	GI50 [18]	GI50 [19]	GI50 [20]
CN1C2CCC1CC(C)(O)C2 (stereo unspecified)	> 100 µM (inactive)	> 100 µM (inactive)	> 100 µM (inactive)	> 100 µM	> 100 µM (inactive)	> 100 µM (inactive)	> 100 µM (inactive)	> 100 µM (inactive)	> 100 µM (inactive)	> 100 µM (inactive)	> 100 µM (inactive)	> 100 µM (inactive)	> 100 µM (inactive)	> 100 µM (inactive)	–	–	–	–	–	–
O=C(c1ccco1)C1CC(c2c(O)ccc3ccccc23)=NN1 (stereo unspecified)	12.1 µM (inactive)	11.8 µM (inactive)	13.5 µM (inactive)	19 µM	17.1 µM (inactive)	20.6 µM (inactive)	11.2 µM (inactive)	21 µM (inactive)	13.6 µM (inactive)	16 µM (inactive)	–	13.2 µM (inactive)	7.85 µM (inactive)	11.8 µM (inactive)	12.5 µM (inactive)	16.2 µM (inactive)	18.4 µM (inactive)	4.2 µM (inactive)	13.3 µM (inactive)	11.8 µM (inactive)
COC(=O)c1ccc(/C=C2\N=C(C)OC2=O)cc1	> 100 µM (inactive)	> 100 µM (inactive)	> 100 µM (inactive)	> 100 µM	> 100 µM (inactive)	–	> 100 µM (inactive)	> 100 µM (inactive)	> 100 µM (inactive)	–	> 100 µM (inactive)	> 100 µM (inactive)	> 100 µM (inactive)	> 100 µM (inactive)	> 100 µM (inactive)	> 100 µM (inactive)	> 100 µM (inactive)	59 µM (inactive)	> 100 µM (inactive)	> 100 µM (inactive)
O=CCCn1[nH]c(=O)ccc1=O	> 100 µM (inactive)	> 100 µM (inactive)	> 100 µM (inactive)	> 100 µM	> 100 µM (inactive)	> 100 µM (inactive)	> 100 µM (inactive)	> 100 µM (inactive)	> 100 µM (inactive)	> 100 µM (inactive)	> 100 µM (inactive)	> 100 µM (inactive)	> 100 µM (inactive)	> 100 µM (inactive)	> 100 µM (inactive)	> 100 µM (inactive)	> 100 µM (inactive)	–	> 100 µM (inactive)	> 100 µM (inactive)
COC(=O)C1(Cc2ccccc2)Cc2cc3c(cc2C1)CCC3	34.1 µM (inactive)	10.5 µM (inactive)	14.1 µM (inactive)	28.4 µM	38.5 µM (inactive)	29.2 µM (inactive)	37.5 µM (inactive)	41.1 µM (inactive)	15.4 µM (inactive)	22.3 µM (inactive)	18.6 µM (inactive)	21.5 µM (inactive)	33.3 µM (inactive)	36.1 µM (inactive)	30 µM (inactive)	–	35.5 µM (inactive)	22.2 µM (inactive)	24.5 µM (inactive)	20.3 µM (inactive)
CNc1ccccc1-c1nc2ccccc2c(=O)o1	> 100 µM (inactive)	–	> 100 µM (inactive)	> 100 µM	–	> 100 µM (inactive)	41.2 µM (inactive)	> 100 µM (inactive)	> 100 µM (inactive)	> 100 µM (inactive)	> 100 µM (inactive)	> 100 µM (inactive)	> 100 µM (inactive)	> 100 µM (inactive)	> 100 µM (inactive)	> 100 µM (inactive)	–	–	74.1 µM (inactive)	27.4 µM (inactive)
Nc1n[nH]c(CCCCCCCc2nnc(N)[nH]2)n1	> 100 µM (inactive)	> 100 µM (inactive)	> 100 µM (inactive)	> 100 µM	> 100 µM (inactive)	> 100 µM (inactive)	–	> 100 µM (inactive)	> 100 µM (inactive)	> 100 µM (inactive)	> 100 µM (inactive)	> 100 µM (inactive)	> 100 µM (inactive)	–	> 100 µM (inactive)	–	> 100 µM (inactive)	> 100 µM (inactive)	–	> 100 µM (inactive)
COc1ccc(/C(Cl)=C(\C=O)c2ccc(OC)cc2)cc1	> 100 µM (inactive)	> 100 µM (inactive)	15.9 µM (inactive)	43.7 µM	> 100 µM (inactive)	72.4 µM (inactive)	59.8 µM (inactive)	–	37.9 µM (inactive)	> 100 µM (inactive)	80 µM (inactive)	> 100 µM (inactive)	31.5 µM (inactive)	> 100 µM (inactive)	84.3 µM (inactive)	> 100 µM (inactive)	> 100 µM (inactive)	18.3 µM (inactive)	> 100 µM (inactive)	> 100 µM (inactive)
CC(=O)OC/C=C\Cn1ncc(=O)[nH]c1=O	19 µM (inactive)	14.2 µM (inactive)	11.3 µM (inactive)	19.2 µM	13.6 µM (inactive)	–	–	21.4 µM (inactive)	7.71 µM (inactive)	16.5 µM (inactive)	3.32 µM (inactive)	20.3 µM (inactive)	23.3 µM (inactive)	17.1 µM (inactive)	21.6 µM (inactive)	–	16.4 µM (inactive)	16.1 µM (inactive)	17.9 µM (inactive)	16.7 µM (inactive)
CSCC(CO)NC(=O)/C=C/c1c(C)[nH]c(=O)[nH]c1=O (stereo unspecified)	85.1 µM (inactive)	> 826 µM (inactive)	197 µM (inactive)	485 µM	690 µM (inactive)	820 µM (inactive)	> 875 µM (inactive)	> 875 µM (inactive)	661 µM (inactive)	307 µM (inactive)	457 µM (inactive)	454 µM (inactive)	671 µM (inactive)	366 µM (inactive)	–	91.8 µM (inactive)	> 875 µM (inactive)	45.8 µM (inactive)	> 875 µM (inactive)	444 µM (inactive)
COc1ccc(N[S+]([O-])c2ccc(-c3ccccc3)cc2)cc1 (stereo unspecified)	> 100 µM (inactive)	> 100 µM (inactive)	> 100 µM (inactive)	> 100 µM	46 µM (inactive)	> 100 µM (inactive)	> 100 µM (inactive)	91.4 µM (inactive)	> 100 µM (inactive)	> 100 µM (inactive)	19.5 µM (inactive)	> 100 µM (inactive)	> 100 µM (inactive)	70.8 µM (inactive)	> 100 µM (inactive)	> 100 µM (inactive)	–	> 100 µM (inactive)	8.55 µM (inactive)	22.3 µM (inactive)
CN(C)C(=O)C1CCC(=C2C(=O)OC(C)(C)OC2=O)N1C (stereo unspecified)	> 100 µM (inactive)	> 100 µM (inactive)	–	> 100 µM	> 100 µM (inactive)	> 100 µM (inactive)	> 100 µM (inactive)	> 100 µM (inactive)	–	> 100 µM (inactive)	> 100 µM (inactive)	> 100 µM (inactive)	> 100 µM (inactive)	> 100 µM (inactive)	> 100 µM (inactive)	> 100 µM (inactive)	> 100 µM (inactive)	> 100 µM (inactive)	> 100 µM (inactive)	> 100 µM (inactive)
CN(N)c1nc(N)c(C#N)c(C#N)c1C#N	> 10 µM (inactive)	> 10 µM (inactive)	> 10 µM (inactive)	> 10 µM	> 10 µM (inactive)	> 10 µM (inactive)	> 10 µM (inactive)	> 10 µM (inactive)	> 10 µM (inactive)	> 10 µM (inactive)	> 10 µM (inactive)	–	–	> 10 µM (inactive)	> 10 µM (inactive)	> 10 µM (inactive)	–	> 10 µM (inactive)	> 10 µM (inactive)	> 10 µM (inactive)
CC1OC(O)CC(OC(=O)c2ccccc2)C1OC(=O)c1ccccc1 (stereo unspecified)	43.6 µM (inactive)	21.6 µM (inactive)	13.6 µM (inactive)	15.3 µM	16 µM (inactive)	15.3 µM (inactive)	48 µM (inactive)	16.1 µM (inactive)	8.18 µM (inactive)	16.6 µM (inactive)	11.1 µM (inactive)	–	49.4 µM (inactive)	13.3 µM (inactive)	18.2 µM (inactive)	23.3 µM (inactive)	> 100 µM (inactive)	> 100 µM (inactive)	12.4 µM (inactive)	–
CC1(C)CC[C@]2(C)CC[C@]3(C)C(=CC[C@@H]4[C@@]5(C)CCC(=O)C(C)(C)[C@@H]5[C@H](O)C[C@]43C)[C@@H]2C1	15.5 µM (inactive)	17 µM (inactive)	29.5 µM (inactive)	18.6 µM	19.5 µM (inactive)	17.7 µM (inactive)	17.6 µM (inactive)	17.6 µM (inactive)	23 µM (inactive)	17.5 µM (inactive)	17.1 µM (inactive)	17.8 µM (inactive)	18 µM (inactive)	19.8 µM (inactive)	16.9 µM (inactive)	18.3 µM (inactive)	17.3 µM (inactive)	17 µM (inactive)	17 µM (inactive)	–
Cc1c2cccc-2ccc2c3ccccc3n(C(=O)c3ccc(Cl)cc3)c12	–	> 76.7 µM (inactive)	> 82.6 µM (inactive)	10.6 µM	> 100 µM (inactive)	> 100 µM (inactive)	> 100 µM (inactive)	> 100 µM (inactive)	45.1 µM (inactive)	> 100 µM (inactive)	> 100 µM (inactive)	34.1 µM (inactive)	> 89.7 µM (inactive)	> 100 µM (inactive)	> 100 µM (inactive)	> 100 µM (inactive)	> 100 µM (inactive)	> 100 µM (inactive)	> 100 µM (inactive)	> 100 µM (inactive)
